Measured values taken from patent US20070043049A1, “Substituted heterocyclic diarylamine analogues” (Neurogen Corporation, priority 2003, published 2007).

Target: T1, human capsaicin receptor (Homo sapiens, UniProt Q8NER1)
T1 construct: pBK-CMV expression construct encoding the full length human capsaicin receptor; expressed in transfected cells
Assay: Calcium mobilization assay, determination of antagonist activity (Example 6)
Format: cell-based
Details: 50% decrease in fluorescence response of cells expressing human capsaicin receptor exposed to capsaicin
Experimental: A cDNA encoding full length human capsaicin receptor (SEQ ID NO:1, 2 or 3 of U.S. Pat. No. 6,482,611) was subcloned in the plasmid pBK-CMV (Stratagene, La Jolla, Calif.) for recombinant expression in mammalian cells.
Human embryonic kidney (HEK293) cells were transfected with the pBK-CMV expression construct encoding the full length human capsaicin receptor using standard methods. The transfected cells were selected for two weeks in media containing G418 (400 μg/ml) to obtain a pool of stably transfected cells. Independent clones were isolated from this pool by limiting dilution to obtain clonal stable cell lines for use in subsequent experiments.
Cells transfected with expression plasmids (as described in Example 4) and thereby expressing human capsaicin receptor are seeded and grown to 70-90% confluency in FALCON black-walled, clear-bottomed 96-well plates (#3904, BECTON-DICKINSON, Franklin Lakes, N.J.). The culture medium is emptied from the 96 well plates and FLUO-3 AM calcium sensitive dye (Molecular Probes, Eugene, Oreg.) is added to each well (dye solution: 1 mg FLUO-3 AM, 440 μL DMSO and 440 μl 20% pluronic acid in DMSO, diluted 1:250 in Krebs-Ringer HEPES (KRH) buffer (25 mM HEPES, 5 mM KCl, 0.96 mM NaH2PO4, 1 mM MgSO4, 2 mM CaCl2, 5 mM glucose, 1 mM probenecid, pH 7.4), 50 μl diluted solution per well). Plates are covered with aluminum foil and incubated at 37° C. for 1-2 hours in an environment containing 5% CO2. After the incubation, the dye is emptied from the plates, and the cells are washed once with KRH buffer, and resuspended in KRH buffer.
To measure the ability of a test compound to agonize or antagonize a calcium mobilization response in cells expressing capsaicin receptors to capsaicin or other vanilloid agonist, the EC50 of the agonist capsaicin is first determined. An additional 20 μl of KRH buffer and 1 μl DMSO is added to each well of cells, prepared as described above. 100 μl capsaicin in KRH buffer is automatically transferred by the FLIPR instrument to each well. Capsaicin-induced calcium mobilization is monitored using either FLUOROSKAN ASCENT (Labsystems; Franklin, Mass.) or FLIPR (fluorometric imaging plate reader system; Molecular Devices, Sunnyvale, Calif.) instruments. Data obtained between 30 and 60 seconds after agonist application are used to generate an 8-point concentration response curve, with final capsaicin concentrations of 1 nM to 3 μM. KALEIDAGRAPH software (Synergy Software, Reading, Pa.) is used to fit the data to the equation: y=a*(1/(1+(b/x)^c)) to determine the 50% excitatory concentration (EC50) for the response. In this equation, y is the maximum fluorescence signal, x is the concentration of the agonist or antagonist (in this case, capsaicin), a is the Emax, b corresponds to the EC50 value and c is the Hill coefficient. Determination of Agonist Activity
Test compounds are dissolved in DMSO, diluted in 20 μl KRH buffer so that the final concentration of test compounds in the assay well is between 1 μM and 5 μM, and added to cells prepared as described above. The 96 well plates containing prepared cells and test compounds are incubated in the dark, at room temperature for 0.5 to 6 hours. It is important that the incubation not continue beyond 6 hours. Just prior to determining the fluorescence response, 100 μl capsaicin in KRH buffer at twice the EC50 concentration determined as described above is automatically added by the FLIPR instrument to each well of the 96 well plate for a final sample volume of 200 μl and a final capsaicin concentration equal to the EC50. The final concentration of test compounds in the assay wells is between 1 μM and […]. […] The concentration of antagonist required to provide a 50% decrease, relative to the response observed in the presence of capsaicin and without antagonist, is the IC50 for the antagonist, and is preferably below 1 micromolar, 100 nanomolar, 10 nanomolar or 1 nanomolar.

T1 sequence (Q8NER1 whole entry): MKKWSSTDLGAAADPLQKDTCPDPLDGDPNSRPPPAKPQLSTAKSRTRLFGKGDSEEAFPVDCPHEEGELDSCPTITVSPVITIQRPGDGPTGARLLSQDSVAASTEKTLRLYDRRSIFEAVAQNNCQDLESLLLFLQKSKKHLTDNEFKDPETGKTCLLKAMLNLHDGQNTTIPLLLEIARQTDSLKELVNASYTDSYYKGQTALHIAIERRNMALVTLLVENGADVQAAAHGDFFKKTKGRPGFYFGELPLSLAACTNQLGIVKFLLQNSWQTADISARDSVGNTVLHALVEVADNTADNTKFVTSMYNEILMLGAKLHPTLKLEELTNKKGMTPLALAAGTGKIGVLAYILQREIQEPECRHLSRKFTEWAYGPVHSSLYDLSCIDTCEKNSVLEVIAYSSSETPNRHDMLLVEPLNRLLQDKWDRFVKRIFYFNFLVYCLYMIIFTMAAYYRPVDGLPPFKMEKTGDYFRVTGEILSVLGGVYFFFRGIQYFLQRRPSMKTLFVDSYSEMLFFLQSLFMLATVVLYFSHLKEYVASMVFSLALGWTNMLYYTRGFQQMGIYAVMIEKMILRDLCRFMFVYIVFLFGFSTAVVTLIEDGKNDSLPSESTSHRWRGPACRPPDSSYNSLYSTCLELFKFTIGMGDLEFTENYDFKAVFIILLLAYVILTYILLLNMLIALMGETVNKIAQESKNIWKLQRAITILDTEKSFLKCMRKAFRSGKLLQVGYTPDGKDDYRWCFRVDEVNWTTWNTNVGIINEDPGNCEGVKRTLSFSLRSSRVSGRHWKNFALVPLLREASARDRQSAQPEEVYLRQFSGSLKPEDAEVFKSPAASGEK

IC50, ≤ 1000 nM:
CC(C)N(C)c1nc(Nc2ccc(C(F)(F)F)cc2)nc(N2CCN(c3ncccc3C(F)(F)F)CC2)n1 [Compound 47, N-Isopropyl-N-methyl-N′-(4-trifluoromethyl-phenyl)-6-[4-(3-trifluoromethyl-pyridin-2-yl)-piperazin-1-yl]-[1,3,5]triazine-2,4-diamine]
CCCN(C)c1nc(Nc2ccc(C(F)(F)F)cc2)nc(N2CCN(c3ncccc3C(F)(F)F)CC2)n1 [Compound 48, N-Methyl-N-propyl-N′-(4-trifluoromethyl-phenyl)-6-[4-(3-trifluoromethyl-pyridin-2-yl)-piperazin-1-yl]-[1,3,5]triazine-2,4-diamine]
CC(C)N(C)c1nc(Nc2ccc(C(F)(F)F)cc2)nc(N2CCN(c3ncccc3Cl)CC2)n1 [Compound 49, 6-[4-(3-Chloro-pyridin-2-yl)-piperazin-1-yl]-N-isopropyl-N-methyl-N′-(4-trifluoromethyl-phenyl)-[1,3,5]triazine-2,4-diamine]
CCN(c1nc(Nc2ccc(C(F)(F)F)cc2)nc(N2CCN(c3ncccc3Cl)CC2)n1)C(C)C [Compound 50, 6-[4-(3-Chloro-pyridin-2-yl)-piperazin-1-yl]-N-ethyl-N-isopropyl-N′-(4-trifluoromethyl-phenyl)-[1,3,5]triazine-2,4-diamine]
CN(C)c1nc(Nc2ccccc2)nc(N2CCN(c3ncccc3C(F)(F)F)CC2)n1 [Compound 51, N,N-Dimethyl-N′-phenyl-6-[4-(3-trifluoromethyl-pyridin-2-yl)-piperazin-1-yl]-[1,3,5]triazine-2,4-diamine]
FC(F)(F)c1ccc(Nc2nc(N3CCCCC3)nc(N3CCN(c4ncccc4Cl)CC3)n2)cc1 [Compound 52, {4-[4-(3-Chloro-pyridin-2-yl)-piperazin-1-yl]-6-piperidin-1-yl-[1,3,5]triazin-2-yl}-(4-trifluoromethyl-phenyl)-amine]
C[C@H]1CN(c2ncccc2Cl)CCN1c1nc(Nc2ccc(C(F)(F)F)cc2)nc(N(C)C)n1 [Compound 53, 6-[4-(3-Chloro-pyridin-2-yl)-2-methyl-piperazin-1-yl]-N,N-dimethyl-N′-(4-trifluoromethyl-phenyl)-[1,3,5]triazine-2,4-diamine (S)]
CC(C)N(C)c1nc(Nc2ccccc2)nc(N2CCN(c3ncccc3Cl)CC2)n1 [Compound 54, 6-[4-(3-Chloro-pyridin-2-yl)-piperazin-1-yl]-N-isopropyl-N-methyl-N′-phenyl-[1,3,5]triazine-2,4-diamine]
CC(C)N(C)c1nc(Nc2ccccc2)nc(N2CCN(c3ncccc3C(F)(F)F)CC2)n1 [Compound 55, N-Isopropyl-N-methyl-N′-phenyl-6-[4-(3-trifluoromethyl-pyridin-2-yl)-piperazin-1-yl]-[1,3,5]triazine-2,4-diamine]
FC(F)(F)c1ccc(Nc2nc(N3CCN(c4ncccc4Cl)CC3)nc(N3CCN(c4ncccc4Cl)CC3)n2)cc1 [Compound 56, {4,6-Bis-[4-(3-chloro-pyridin-2-yl)-piperazin-1-yl]-[1,3,5]triazin-2-yl}-(4-trifluoromethyl-phenyl)-amine]
FC(F)(F)c1cccnc1N1CCN(c2nc(Nc3ccccc3)cc(N3CCCCC3)n2)CC1 [Compound 57, Phenyl-{6-piperidin-1-yl-2-[4-(3-trifluoromethyl-pyridin-2-yl)-piperazin-1-yl]-pyrimidin-4-yl}-amine]
Fc1cccc(Nc2nc(N3CCOCC3)nc(N3CCN(c4ncccc4C(F)(F)F)CC3)n2)c1 [Compound 58, (3-Fluoro-phenyl)-{4-morpholin-4-yl-6-[4-(3-trifluoromethyl-pyridin-2-yl)-piperazin-1-yl]-[1,3,5]triazin-2-yl}-amine]
Fc1ccc(Nc2nc(N3CCOCC3)nc(N3CCN(c4ncccc4C(F)(F)F)CC3)n2)cc1 [Compound 59, (4-Fluoro-phenyl)-{4-morpholin-4-yl-6-[4-(3-trifluoromethyl-pyridin-2-yl)-piperazin-1-yl]-[1,3,5]triazin-2-yl}-amine]
Fc1cccc(Nc2nc(N3CCOCC3)nc(N3CCN(c4ncccc4Cl)CC3)n2)c1 [Compound 60, {4-[4-(3-Chloro-pyridin-2-yl)-piperazin-1-yl]-6-morpholin-4-yl-[1,3,5]triazin-2-yl}-(3-fluoro-phenyl)-amine]
Fc1ccc(Nc2nc(N3CCOCC3)nc(N3CCN(c4ncccc4Cl)CC3)n2)cc1 [Compound 61, {4-[4-(3-Chloro-pyridin-2-yl)-piperazin-1-yl]-6-morpholin-4-yl-[1,3,5]triazin-2-yl}-(4-fluoro-phenyl)-amine]
Clc1ccc(Nc2nc(N3CCOCC3)nc(N3CCN(c4ncccc4Cl)CC3)n2)cc1 [Compound 62, (4-Chloro-phenyl)-{4-[4-(3-chloro-pyridin-2-yl)-piperazin-1-yl]-6-morpholin-4-yl-[1,3,5]triazin-2-yl}-amine]
FC(F)(F)c1cccnc1N1CCN(c2nc(Nc3ccc(Cl)cc3)nc(N3CCOCC3)n2)CC1 [Compound 63, (4-Chloro-phenyl)-{4-morpholin-4-yl-6-[4-(3-trifluoromethyl-pyridin-2-yl)-piperazin-1-yl]-[1,3,5]triazin-2-yl}-amine]
Cc1ccc(Nc2nc(N3CCOCC3)nc(N3CCN(c4ncccc4C(F)(F)F)CC3)n2)cc1 [Compound 64, {4-Morpholin-4-yl-6-[4-(3-trifluoromethyl-pyridin-2-yl)-piperazin-1-yl]-[1,3,5]triazin-2-yl}-p-tolyl-amine]
Cc1ccc(Nc2nc(N3CCOCC3)nc(N3CCN(c4ncccc4Cl)CC3)n2)cc1 [Compound 65, {4-[4-(3-Chloro-pyridin-2-yl)-piperazin-1-yl]-6-morpholin-4-yl-[1,3,5]triazin-2-yl}-p-tolyl-amine]
Clc1cccc(Nc2nc(N3CCOCC3)nc(N3CCN(c4ncccc4Cl)CC3)n2)c1 [Compound 66, (3-Chloro-phenyl)-{4-[4-(3-chloro-pyridin-2-yl)-piperazin-1-yl]-6-morpholin-4-yl-[1,3,5]triazin-2-yl}-amine]
FC(F)(F)c1cccnc1N1CCN(c2nc(Nc3cccc(Cl)c3)nc(N3CCOCC3)n2)CC1 [Compound 67, (3-Chloro-phenyl)-{4-morpholin-4-yl-6-[4-(3-trifluoromethyl-pyridin-2-yl)-piperazin-1-yl]-[1,3,5]triazin-2-yl}-amine]
Fc1ccc(Nc2nc(N3CCOCC3)nc(N3CCN(c4ncccc4Cl)CC3)n2)cc1F [Compound 68, {4-[4-(3-Chloro-pyridin-2-yl)-piperazin-1-yl]-6-morpholin-4-yl-[1,3,5]triazin-2-yl}-(3,4-difluoro-phenyl)-amine]
Fc1ccc(Nc2nc(N3CCOCC3)nc(N3CCN(c4ncccc4C(F)(F)F)CC3)n2)cc1F [Compound 69, (3,4-Difluoro-phenyl)-{4-morpholin-4-yl-6-[4-(3-trifluoromethyl-pyridin-2-yl)-piperazin-1-yl]-[1,3,5]triazin-2-yl}-amine]
Fc1cccc(Nc2nc(N3CCCCC3)nc(N3CCN(c4ncccc4Cl)CC3)n2)c1 [Compound 70, {4-[4-(3-Chloro-pyridin-2-yl)-piperazin-1-yl]-6-piperidin-1-yl-[1,3,5]triazin-2-yl}-(3-fluoro-phenyl)-amine]
